Laboratory results: US20100261710A1, “HDAC Inhibitors” (ARQULE, INC., priority 2007, published 2010)
Where two headings read alike, the source gives them in different places.

What was measured:
HDAC1 = biological target: T1, HDAC1 (Homo sapiens, UniProt Q13547); experiment: HDAC-1 immunocapture fluorescent biochemical assay (HeLa lysate); details: HDAC1 immunocaptured from HeLa extract
T1 construct: cell extract containing HDAC (HeLa in these experiments); endogenous in cells; host or cells: HeLa cell extract
T1 sequence (Q13547 whole entry): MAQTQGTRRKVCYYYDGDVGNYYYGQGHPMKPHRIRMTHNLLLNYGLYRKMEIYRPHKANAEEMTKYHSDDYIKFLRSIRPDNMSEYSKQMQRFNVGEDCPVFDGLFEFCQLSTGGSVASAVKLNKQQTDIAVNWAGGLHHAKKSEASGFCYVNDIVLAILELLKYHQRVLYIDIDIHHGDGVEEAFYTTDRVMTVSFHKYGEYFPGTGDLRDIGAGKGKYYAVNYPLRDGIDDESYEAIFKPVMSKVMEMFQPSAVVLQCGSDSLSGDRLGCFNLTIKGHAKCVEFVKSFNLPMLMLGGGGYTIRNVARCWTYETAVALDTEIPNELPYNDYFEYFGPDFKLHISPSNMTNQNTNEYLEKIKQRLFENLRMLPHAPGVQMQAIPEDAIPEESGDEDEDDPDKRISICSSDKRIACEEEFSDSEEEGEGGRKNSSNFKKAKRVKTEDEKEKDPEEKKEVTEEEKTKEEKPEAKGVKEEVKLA
Protocol: The HDAC-1 assay represents a novel immunocapture assay procedure. […] The HDAC1 is captured on a protein A coated plate using HDAC1 specific antibody, and is then allowed to react with the substrate.
This assay in performed in four general steps. In the first step (FIG. 1A), cell extract containing HDAC (HeLa in these experiments) is incubated with (cell signaling) rabbit polyclonal HDAC1 antibody (rabbit IgG antibody is used for background control) to allow binding of the enzyme to the antibody. In the second step, the complexed mixture is added to the protein A covered plate which captures the antibody. In the third step, after washing away unbound proteins, substrate and inhibitor are added and deacetylation is allowed to occur. […] The plate is then read on either Victor or Perkin Elmer Envision system using Umbilliferone filter set.
• A. HeLa extract complexed with HDAC1 antibody working solution (in DPBS):
Compound working solution (in HDAC buffer):
Compounds diluted in assay buffer at 2× Screening concentration. • D. Activator solution:
Trypsin (10 mg/mL) diluted 1:1600 in assay buffer containing 4 μM TSA.
Complexing of extract with antibody was carried out at room temperature for 60 min with rocking. Binding of complexes onto protein A plate was carried out at room temperature for 60 min in 50 μL. Reaction was carried out in […], in the protein A plate for 60 minutes at 37° C. 40 μL of the reaction was moved into white ½ area plate for activation and reading.
• 1. Set PIERCE Protein A plate to block with 150 μof 5% BSA in TB ST for 60 min at room temperature. • 2. […] Dilute complexes further ([…]) by addition of 3.5 mL of PBS (final total volume of 5 mL). • 4. Wash blocked protein A plate prior to complex addition with TBST. • 5. Add 50 μl of diluted complexes to Protein A plate and incubate for 60 min at room temperature. • 6. Wash plate with TB ST. • 7. Add 25 μl of diluted compounds (in HDAC buffer) to each well and incubate for 10 min at room temperature. • 8. […] Move 40 μl of reaction to a white plate and add 20 μl of activator/developer solution, mix thoroughly. • 10. Read plate.

HDAC2 = biological target: T2, HDAC2 (Homo sapiens, UniProt Q92769); experiment: HDAC isoform assay, HDAC2; type: biochemical; details: substrate KI-177; read-out: HDAC2, IC50, ELISA (KI-177)
T2 construct: purchased BioMol
T2 sequence (Q92769 whole entry, canonical isoform): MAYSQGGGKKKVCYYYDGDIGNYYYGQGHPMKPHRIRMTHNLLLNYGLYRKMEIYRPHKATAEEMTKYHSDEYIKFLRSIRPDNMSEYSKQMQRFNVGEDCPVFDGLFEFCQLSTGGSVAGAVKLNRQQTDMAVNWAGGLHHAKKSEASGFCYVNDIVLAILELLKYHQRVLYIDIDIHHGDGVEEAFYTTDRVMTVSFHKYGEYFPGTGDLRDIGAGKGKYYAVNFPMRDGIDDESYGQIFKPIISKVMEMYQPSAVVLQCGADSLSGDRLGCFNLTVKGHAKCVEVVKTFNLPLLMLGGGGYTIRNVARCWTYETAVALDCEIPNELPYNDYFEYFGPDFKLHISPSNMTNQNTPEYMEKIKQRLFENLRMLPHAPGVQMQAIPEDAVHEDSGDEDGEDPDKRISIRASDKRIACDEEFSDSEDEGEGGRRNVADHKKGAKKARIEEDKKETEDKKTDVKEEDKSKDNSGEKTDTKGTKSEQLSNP

HDAC3 = biological target: T3, HDAC3 (Homo sapiens, UniProt O15379); experiment: HDAC isoform assay, HDAC3; type: biochemical
T3 construct: purchased BioMol
T3 sequence (O15379 whole entry, canonical isoform): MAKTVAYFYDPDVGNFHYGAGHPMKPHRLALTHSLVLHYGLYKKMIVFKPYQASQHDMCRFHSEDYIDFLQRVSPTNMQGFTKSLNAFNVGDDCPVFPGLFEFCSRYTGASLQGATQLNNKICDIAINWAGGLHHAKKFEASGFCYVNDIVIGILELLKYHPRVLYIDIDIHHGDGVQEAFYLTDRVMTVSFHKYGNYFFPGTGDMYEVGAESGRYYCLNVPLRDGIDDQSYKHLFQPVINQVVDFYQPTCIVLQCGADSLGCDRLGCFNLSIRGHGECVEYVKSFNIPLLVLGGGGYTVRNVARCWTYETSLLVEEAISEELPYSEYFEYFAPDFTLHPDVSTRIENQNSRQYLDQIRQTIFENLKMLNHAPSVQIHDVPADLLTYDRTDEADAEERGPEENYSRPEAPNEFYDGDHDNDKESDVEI
T3 sequence (O75376 395-489 partner limits assumed): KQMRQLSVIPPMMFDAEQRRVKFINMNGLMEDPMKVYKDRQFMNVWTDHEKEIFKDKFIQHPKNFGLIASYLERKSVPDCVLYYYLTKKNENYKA
Protocol: The assay measures the ability of a small molecule to inhibit deacetylation of the substrate. Activator reagent recognizes the substrate only if the lysine has been deacetylated.
This homogeneous assay in performed in the same well without washing steps. The HDAC source, nuclear HeLa extract, is incubated with substrate in the presence of an inhibitor compound. At the end of the reaction time, activator solution, containing Trypsin and TSA, is added to stop the deacetylation reaction, and cleave the amino-coumarin from the deacetylated substrate. The plate is then read on either a Perkin Elmer Victor or Envision system using Umbilliferone filter set. […] The signal is directly proportional to the activity of HDACs and compound inhibition of HDAC is monitored by a decrease in signal.

[1] = system: HDACs (nuclear HeLa extract); experiment: pan-HDAC fluorescent biochemical assay with nuclear HeLa extract; details: HDAC peptide substrate, 60 min at 37° C.
Protocol: Substrate was synthesized in house. Stocks were prepared in DMSO (10 mM).
Compound working solution: Compounds dissolved in assay buffer at 4× Screening concentration. Activator solution: Trypsin (10 mg/mL) diluted 1:1600 in Assay Buffer containing 4 μM TSA.
Total reaction Volume: 40 μL
Reaction was allowed to run for 60 minutes at 37° C.
2. Combine in a white ½ area well plate: 10 μl of 4× compound (or buffer), 15 μl of substrate and 15 μl of HeLa extract. Mix well
3. Incubate at 37° C. for 60 min.
4. Prepare Activator solution. Dilute Trypsin 1:1600 in Assay Buffer+4μM TSA. 20 μl is needed per assay point.
5. Add 20 μl of prepared activator solution and mix thoroughly.
The hydroxamic-acid based compounds of the present invention were tested in the biochemical assay for their pan-HDAC inhibitory activity.

HCT-116 cells = experiment: MTS cell viability assay, HCT-116; type: cell-based; details: Homo sapiens
Protocol: (§1) The MTS cell viability assay was used to determine the potency of proliferation inhibitor with. MTS measures mitochondrial dehydrogenase activity and serves as surrogate readout for the number of viable cells.
(§2) For MTS assay, cells were plated in 96-well plates at 2000 cells per well and incubated in the presence of compounds for 72 hr. MTS was added to each well as instructed by manufacture (Promega) and plates were incubated for 4 h at 37° C. The absorbance of each well was measured at 490 nm using a microplate reader.

HH cells = experiment: MTS cell viability assay, HH; type: cell-based; details: Homo sapiens, 72 hr, read-out: HH, IG50, MTS
Protocol: The MTS cell viability assay was used to determine the potency of proliferation inhibitor with. MTS measures mitochondrial dehydrogenase activity and serves as surrogate readout for the number of viable cells. The protocol described below is based upon the “CellTiter 96 Aqueous Non-Radioactive Cell Proliferation Assay” sold by Promega (Technical Bulletin No. 169).
as §2

Hut78 cells = experiment: MTS cell viability assay, Hut78; type: cell-based; details: Homo sapiens; Hut78, 72 hr; read-out: Hut78, IG50, MTS
Protocol: as §1, §2

HDAC5 = HDAC5 (Homo sapiens, UniProt Q9UQL6); experiment: HDAC isoform assay, HDAC5
Sequence of HDAC5 (Q9UQL6 whole entry, canonical isoform): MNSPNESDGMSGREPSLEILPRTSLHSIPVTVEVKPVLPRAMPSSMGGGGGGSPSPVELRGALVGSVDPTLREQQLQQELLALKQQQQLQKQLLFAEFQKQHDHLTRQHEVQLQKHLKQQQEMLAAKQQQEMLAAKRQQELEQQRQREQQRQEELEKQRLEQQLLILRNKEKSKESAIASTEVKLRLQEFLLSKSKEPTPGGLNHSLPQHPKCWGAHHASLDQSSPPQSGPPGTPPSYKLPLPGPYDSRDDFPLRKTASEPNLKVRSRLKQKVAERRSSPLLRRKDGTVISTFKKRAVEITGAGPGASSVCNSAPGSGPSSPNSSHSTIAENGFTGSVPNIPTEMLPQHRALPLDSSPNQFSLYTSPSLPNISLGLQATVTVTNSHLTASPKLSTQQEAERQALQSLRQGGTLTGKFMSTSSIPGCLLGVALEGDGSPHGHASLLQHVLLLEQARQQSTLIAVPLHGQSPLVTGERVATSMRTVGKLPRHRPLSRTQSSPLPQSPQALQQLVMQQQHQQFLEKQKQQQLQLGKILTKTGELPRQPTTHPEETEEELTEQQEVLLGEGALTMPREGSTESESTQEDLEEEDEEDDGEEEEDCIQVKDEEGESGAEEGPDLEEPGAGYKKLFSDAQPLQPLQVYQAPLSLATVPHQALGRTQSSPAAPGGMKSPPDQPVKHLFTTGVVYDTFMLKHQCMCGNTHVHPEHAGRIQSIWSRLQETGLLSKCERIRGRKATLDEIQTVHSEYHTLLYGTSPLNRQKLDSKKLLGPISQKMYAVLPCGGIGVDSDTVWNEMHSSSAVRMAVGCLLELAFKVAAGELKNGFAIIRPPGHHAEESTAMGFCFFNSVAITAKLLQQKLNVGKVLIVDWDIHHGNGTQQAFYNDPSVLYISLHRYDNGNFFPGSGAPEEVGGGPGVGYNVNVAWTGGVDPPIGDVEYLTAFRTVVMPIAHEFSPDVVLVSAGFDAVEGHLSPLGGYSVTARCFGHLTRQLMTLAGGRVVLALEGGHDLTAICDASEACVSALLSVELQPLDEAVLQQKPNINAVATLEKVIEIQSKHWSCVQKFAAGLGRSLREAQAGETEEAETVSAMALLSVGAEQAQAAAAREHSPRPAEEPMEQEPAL

HDAC8 = biological target: T4, HDAC8 (Homo sapiens, UniProt Q9BY41); experiment: HDAC isoform assay, HDAC8
T4 sequence (Q9BY41 1-377): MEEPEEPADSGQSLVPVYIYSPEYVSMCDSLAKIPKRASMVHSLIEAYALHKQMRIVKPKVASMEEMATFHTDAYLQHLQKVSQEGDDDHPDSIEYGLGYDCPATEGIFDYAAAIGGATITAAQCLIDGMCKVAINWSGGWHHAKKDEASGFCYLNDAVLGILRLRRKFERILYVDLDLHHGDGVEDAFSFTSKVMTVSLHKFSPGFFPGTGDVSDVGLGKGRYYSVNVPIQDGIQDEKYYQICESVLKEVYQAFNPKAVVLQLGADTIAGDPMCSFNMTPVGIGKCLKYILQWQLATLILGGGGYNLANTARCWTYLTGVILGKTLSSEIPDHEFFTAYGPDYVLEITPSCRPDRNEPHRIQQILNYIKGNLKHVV

[2] = HCT-116, 72 h, read-out: HCT-116, IG50, MTS (uM)
[3] = substrate KI-177, read-out: HDAC3, IC50, ELISA (KI-177)
[4] = HCT-116, 72 hr, read-out: HCT-116, IG50, MTS

| SMILES | IC50 (HDAC1) | IC50 (HDAC2) | IC50 (HDAC3) | IC50 [1] | IC50 (HCT-116 cells; [2]) | IC50 (HH cells) | IC50 (Hut78 cells) | IC50 (HDAC5) | IC50 (HDAC8) | melting point | IC50 (HDAC3; [3]) | IC50 (HCT-116 cells; [4]) |
| --- | --- | --- | --- | --- | --- | --- | --- | --- | --- | --- | --- | --- |
| O=C(CCCCCNC(=O)c1cn2c3c(cccc13)CCC2)NO [compound 2, N-[6-(hydroxyamino)-6-oxohexyl]-5,6-dihydro-4H-pyrrolo[3,2,1-ij]quinoline-1-carboxamide] | 0.0132 µM | 1.94 µM | 0.0136 µM | 0.0574 µM | 0.63 µM | 1.72 µM | 2.92 µM | 0.0911 µM | 1.09 µM | – | – | – |
| O=C(CCCCCCNC(=O)c1cn2c3c(cccc13)CCC2)NO [compound 3, N-[7-(hydroxyamino)-7-oxoheptyl]-5,6-dihydro-4H-pyrrolo[3,2,1-ij]quinoline-1-carboxamide] | 0.041 µM | 2.46 µM | 0.0457 µM | 0.0698 µM | 0.215 µM | 0.111 µM | 0.24 µM | 0.095 µM | 0.408 µM | 205 to 206 °C | – | – |
| O=C(CCCCCNC(=O)C(=O)c1cn2c3c(cccc13)CCC2)NO [compound 8, 6-{[5,6-dihydro-4H-pyrrolo[3,2,1-ij]quinolin-1-yl(oxo)acetyl]amino}-N-hydroxyhexanamide] | 0.045 µM | 1.8 µM | 0.0204 µM | 0.115 µM | 0.737 µM | 2.62 µM | – | 0.163 µM | 9.24 µM | 150 to 155 °C | – | – |
| O=C(CCCNC(=O)C(=O)c1cn2c3c(cccc13)CCC2)NO [compound 9, 4-{[5,6-dihydro-4H-pyrrolo[3,2,1-ij]quinolin-1-yl(oxo)acetyl]amino}-N-hydroxybutanamide] | 0.583 µM | 3 µM | 0.63 µM | 0.602 µM | 5.02 µM | 0.365 µM | 0.903 µM | – | 10 µM | 95 to 97 °C | – | – |
| O=C(CCCCCCNC(=O)Nc1cn2c3c(cccc13)CCC2)NO [compound 11, 7-[(5,6-dihydro-4H-pyrrolo[3,2,1-ij]quinolin-1-ylcarbamoyl)amino]-N-hydroxyheptanamide] | 0.022 µM | 1.34 µM | – | 0.0279 µM | – | 0.094 µM | 0.181 µM | 0.353 µM | 0.492 µM | 185 to 187 °C | 0.023 µM | 0.492 µM |
| O=C(CCCCCCNC(=O)C(=O)c1cn2c3c(cccc13)CCC2)NO [compound 12, 7-{[5,6-dihydro-4H-pyrrolo[3,2,1-ij]quinolin-1-yl(oxo)acetyl]amino}-N-hydroxyheptanamide] | 0.0904 µM | 2.32 µM | – | 0.126 µM | – | 0.045 µM | 0.174 µM | 0.26 µM | 6.42 µM | 158 to 159 °C | 0.0876 µM | 0.701 µM |
| O=C(CCCCCNC(=O)Nc1cn2c3c(cccc13)CCC2)NO [compound 13, 6-[(5,6-dihydro-4H-pyrrolo[3,2,1-ij]quinolin-1-ylcarbamoyl)amino]-N-hydroxyhexanamide] | 0.0189 µM | 1.78 µM | – | 0.0322 µM | – | 1.02 µM | 1.27 µM | 0.201 µM | 0.918 µM | 161 to 163 °C | 0.0205 µM | 0.636 µM |
